This is an account of results in ChEMBL document CHEMBL1157898 (Bioorg Med Chem Lett, 2010).

Data set [1] addresses RAF proto-oncogene serine/threonine-protein kinase (Homo sapiens) (UniProt P04049). Kind of data set: Inhibition of C-Raf.
For data set [2], the target named is T1, Serine/threonine-protein kinase Chk1 (Homo sapiens) (UniProt O14757).
T1 sequence (whole entry): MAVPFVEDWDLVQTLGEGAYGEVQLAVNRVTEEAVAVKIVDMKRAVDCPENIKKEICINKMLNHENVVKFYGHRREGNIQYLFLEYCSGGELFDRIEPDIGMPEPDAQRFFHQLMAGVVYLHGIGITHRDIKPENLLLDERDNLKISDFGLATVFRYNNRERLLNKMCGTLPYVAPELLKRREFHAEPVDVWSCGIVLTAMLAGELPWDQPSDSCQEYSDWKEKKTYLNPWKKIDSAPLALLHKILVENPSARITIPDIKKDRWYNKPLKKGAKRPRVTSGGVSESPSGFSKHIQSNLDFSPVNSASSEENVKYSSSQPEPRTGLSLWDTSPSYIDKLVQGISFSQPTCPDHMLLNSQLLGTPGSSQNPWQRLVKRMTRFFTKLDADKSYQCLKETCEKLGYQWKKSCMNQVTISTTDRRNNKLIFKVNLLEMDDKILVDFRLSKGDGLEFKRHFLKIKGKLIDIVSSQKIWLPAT
In words: Inhibition of CHK1.

The target in data set [3] is Dual specificity tyrosine-phosphorylation-regulated kinase 1A (Homo sapiens) (UniProt Q13627). Kind of data set: Inhibition of DYRK1A.
Data set [4] concerns the target Mitogen-activated protein kinase 3 (Homo sapiens) (UniProt P27361). Kind of data set: Inhibition of ERK1.
The target of data set [5] is T2, Calcium/calmodulin-dependent protein kinase type IV (Homo sapiens) (UniProt Q16566).
T2 sequence (whole entry): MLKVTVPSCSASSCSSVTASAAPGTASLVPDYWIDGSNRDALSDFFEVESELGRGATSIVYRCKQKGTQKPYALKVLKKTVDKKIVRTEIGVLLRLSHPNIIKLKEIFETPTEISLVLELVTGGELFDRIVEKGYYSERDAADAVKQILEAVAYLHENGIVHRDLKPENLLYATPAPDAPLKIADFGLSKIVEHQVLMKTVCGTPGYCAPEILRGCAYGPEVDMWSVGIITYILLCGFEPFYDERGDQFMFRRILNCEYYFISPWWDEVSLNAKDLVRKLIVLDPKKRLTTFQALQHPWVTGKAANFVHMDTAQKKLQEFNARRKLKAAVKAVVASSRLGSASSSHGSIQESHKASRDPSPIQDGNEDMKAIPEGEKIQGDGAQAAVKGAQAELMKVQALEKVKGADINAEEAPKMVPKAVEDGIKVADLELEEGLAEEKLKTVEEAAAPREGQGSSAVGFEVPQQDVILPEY
Kind of data set: Inhibition of CAMK4.

Data set [6] addresses Casein kinase I isoform delta (Homo sapiens) (UniProt P48730). In words: Inhibition of CK1delta.
The target in data set [7] is Tyrosine-protein kinase BTK (Homo sapiens) (UniProt Q06187). In words: Inhibition of BTK.
The target in data set [8] is MAP/microtubule affinity-regulating kinase 3 (Homo sapiens) (UniProt P27448). In words: Inhibition of C-TAK1.
In data set [9] the target is Serine/threonine-protein kinase Chk2 (Homo sapiens) (UniProt O96017). Kind of data set: Inhibition of CHK2.
A short description of data set [10]: Inhibition of CAMK2.
Data set [11] has as its system H4. Kind of data set: Toxicity in human H4 cells at 10 uM. It is filed as cell-based. The conditions noted are these: h4, 10 µM.
Data set [12] addresses Mitogen-activated protein kinase 1 (Homo sapiens) (UniProt P28482). In words: Inhibition of ERK2.
Data set [13] concerns the target RAC-alpha serine/threonine-protein kinase (Homo sapiens) (UniProt P31749). Kind of data set: Inhibition of AKT1.
Data set [14] concerns the target Casein kinase I isoform delta (Homo sapiens) (UniProt P48730). In words: Inhibition of casein kinase delta at 10 uM; values are per cent of control.
Data set [15] concerns the target T3, Gamma-secretase (Homo sapiens) (UniProt Q96BI3+Q9NZ42+Q8WW43+P49768+Q92542+P49810). In words: Inhibition of gamma secretase mediated amyloid beta 38 generation in human H4 cells at 5 uM by LPECL assay; values are per cent of control.
Data set [16] addresses T3, Gamma-secretase (Homo sapiens). Kind of data set: Inhibition of gamma secretase mediated amyloid beta 40 generation in human H4 cells at 5 uM by LPECL assay; values are per cent of control.
The target is the same in data set [17]. In words: Inhibition of gamma secretase mediated amyloid beta 42 generation in human H4 cells at 5 uM by LPECL assay; values are per cent of control.
For data set [18] the target is unchanged. In words: Inhibition of gamma secretase in HEK293 cells assessed as amyloid beta 40 secretion at 50 uM. It is filed as cell-based.
Data set [19] shares this target. Kind of data set: Inhibition of gamma secretase in HEK293 cells assessed as amyloid beta secretion at 250 uM. It counts as cell-based.
For data set [20], the system named is N2a. Kind of data set: Inhibition of gamma secretase mediated amyloid beta 40 secretion in mouse N2a cells overexpressing CK1epsilon-271 within 5- to 50 uM after 3hr. It is filed as cell-based.
The target of data set [21] is T3, Gamma-secretase (Homo sapiens). In words: Inhibition of gamma secretase in HEK293 cells assessed as amyloid beta 42 secretion at 50 uM. It counts as cell-based.
For data set [22] the target is unchanged. Kind of data set: Inhibition of gamma secretase in HEK293 cells assessed as amyloid beta 38 secretion at 50 uM. It counts as cell-based.
Data set [23] relates to N2a. In words: Inhibition of gamma secretase mediated amyloid beta 42 secretion in mouse N2a cells overexpressing CK1epsilon-271 within 5- to 50 uM after 3hr. It counts as cell-based.
Data set [24] deals with T3, Gamma-secretase (Homo sapiens). In words: Inhibition of gamma secretase in HEK293 cells assessed as amyloid beta secretion at 150 uM. It is filed as cell-based.
Data set [25] shares this target. Kind of data set: Inhibition of gamma secretase in HEK293 cells assessed as amyloid beta secretion. It counts as cell-based.

Each structure is given as a SMILES string. Calls of active or inactive are those of the source. No cut-off for these calls is given here.

A word on the inhibition: it is the drop in the measured response relative to a control, in per cent. As usually defined, the residual activity is the signal under treatment as a percentage of the control signal.

MAP/microtubule affinity-regulating kinase 3 (Homo sapiens), sequence (P27448 whole entry, looked up): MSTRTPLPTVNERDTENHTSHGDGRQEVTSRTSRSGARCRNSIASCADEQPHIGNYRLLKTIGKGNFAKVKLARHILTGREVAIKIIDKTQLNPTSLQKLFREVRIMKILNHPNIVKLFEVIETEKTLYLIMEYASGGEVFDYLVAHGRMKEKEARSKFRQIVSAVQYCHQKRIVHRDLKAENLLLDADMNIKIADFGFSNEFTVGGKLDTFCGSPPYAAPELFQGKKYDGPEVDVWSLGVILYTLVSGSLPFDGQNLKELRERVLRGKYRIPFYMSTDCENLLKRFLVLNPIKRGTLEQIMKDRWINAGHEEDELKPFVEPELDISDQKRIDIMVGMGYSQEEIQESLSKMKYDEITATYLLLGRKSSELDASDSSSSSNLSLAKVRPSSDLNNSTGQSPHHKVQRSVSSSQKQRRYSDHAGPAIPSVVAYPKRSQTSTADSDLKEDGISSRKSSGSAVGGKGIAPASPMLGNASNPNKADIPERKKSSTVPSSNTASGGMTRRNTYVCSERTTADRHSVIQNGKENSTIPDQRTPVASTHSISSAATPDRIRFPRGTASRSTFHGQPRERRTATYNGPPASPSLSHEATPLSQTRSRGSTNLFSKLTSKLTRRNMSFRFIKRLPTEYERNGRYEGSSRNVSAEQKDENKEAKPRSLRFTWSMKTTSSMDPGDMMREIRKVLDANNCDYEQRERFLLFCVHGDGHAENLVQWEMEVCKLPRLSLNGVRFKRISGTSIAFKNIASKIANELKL
Mitogen-activated protein kinase 3 (Homo sapiens), sequence (P27361 whole entry): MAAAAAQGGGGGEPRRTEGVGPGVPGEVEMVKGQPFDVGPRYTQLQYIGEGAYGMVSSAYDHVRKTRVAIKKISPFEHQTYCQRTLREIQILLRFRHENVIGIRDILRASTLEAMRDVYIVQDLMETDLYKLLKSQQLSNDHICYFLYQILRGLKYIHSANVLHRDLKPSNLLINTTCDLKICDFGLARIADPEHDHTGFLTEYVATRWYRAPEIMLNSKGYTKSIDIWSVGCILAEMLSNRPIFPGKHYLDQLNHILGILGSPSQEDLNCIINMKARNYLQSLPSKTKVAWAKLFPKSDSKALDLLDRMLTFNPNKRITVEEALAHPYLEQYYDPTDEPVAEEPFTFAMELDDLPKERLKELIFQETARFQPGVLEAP
Casein kinase I isoform delta (Homo sapiens), sequence (P48730 whole entry, looked up, canonical isoform): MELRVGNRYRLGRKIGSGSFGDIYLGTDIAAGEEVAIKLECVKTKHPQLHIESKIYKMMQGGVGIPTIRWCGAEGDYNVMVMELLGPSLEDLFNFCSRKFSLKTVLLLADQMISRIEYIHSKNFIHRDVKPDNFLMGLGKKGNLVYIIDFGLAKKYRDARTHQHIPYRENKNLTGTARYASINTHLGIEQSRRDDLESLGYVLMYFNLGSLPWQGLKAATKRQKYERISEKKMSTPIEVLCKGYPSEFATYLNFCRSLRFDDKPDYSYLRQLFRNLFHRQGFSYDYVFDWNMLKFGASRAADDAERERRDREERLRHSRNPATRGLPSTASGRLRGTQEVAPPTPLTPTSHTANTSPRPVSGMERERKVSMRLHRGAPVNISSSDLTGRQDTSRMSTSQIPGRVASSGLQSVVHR
RAC-alpha serine/threonine-protein kinase (Homo sapiens), sequence (P31749 whole entry, canonical isoform): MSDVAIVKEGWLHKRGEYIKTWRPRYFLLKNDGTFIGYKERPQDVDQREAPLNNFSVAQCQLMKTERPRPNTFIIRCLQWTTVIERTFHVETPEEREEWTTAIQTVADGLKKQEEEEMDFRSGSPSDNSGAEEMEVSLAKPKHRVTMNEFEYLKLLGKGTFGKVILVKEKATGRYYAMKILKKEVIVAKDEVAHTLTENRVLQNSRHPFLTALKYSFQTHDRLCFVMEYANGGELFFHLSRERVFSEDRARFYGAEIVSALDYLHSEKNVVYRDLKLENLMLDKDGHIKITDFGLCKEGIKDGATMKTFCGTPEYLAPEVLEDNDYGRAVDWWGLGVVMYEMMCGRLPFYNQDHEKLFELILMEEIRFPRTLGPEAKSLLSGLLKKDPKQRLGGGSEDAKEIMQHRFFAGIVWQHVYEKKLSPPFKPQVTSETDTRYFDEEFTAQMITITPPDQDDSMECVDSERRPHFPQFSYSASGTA
Mitogen-activated protein kinase 1 (Homo sapiens), sequence (P28482 whole entry): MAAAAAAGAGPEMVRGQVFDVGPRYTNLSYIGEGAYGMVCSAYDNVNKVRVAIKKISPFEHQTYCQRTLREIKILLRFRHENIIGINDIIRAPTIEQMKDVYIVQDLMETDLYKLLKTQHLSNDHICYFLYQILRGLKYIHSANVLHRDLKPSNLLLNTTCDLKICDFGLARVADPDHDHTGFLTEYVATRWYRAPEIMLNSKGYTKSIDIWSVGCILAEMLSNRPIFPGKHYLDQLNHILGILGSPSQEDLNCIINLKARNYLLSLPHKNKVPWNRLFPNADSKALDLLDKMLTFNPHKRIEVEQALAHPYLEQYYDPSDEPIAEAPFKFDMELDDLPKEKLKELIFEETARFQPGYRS
Serine/threonine-protein kinase Chk2 (Homo sapiens), sequence (O96017 whole entry): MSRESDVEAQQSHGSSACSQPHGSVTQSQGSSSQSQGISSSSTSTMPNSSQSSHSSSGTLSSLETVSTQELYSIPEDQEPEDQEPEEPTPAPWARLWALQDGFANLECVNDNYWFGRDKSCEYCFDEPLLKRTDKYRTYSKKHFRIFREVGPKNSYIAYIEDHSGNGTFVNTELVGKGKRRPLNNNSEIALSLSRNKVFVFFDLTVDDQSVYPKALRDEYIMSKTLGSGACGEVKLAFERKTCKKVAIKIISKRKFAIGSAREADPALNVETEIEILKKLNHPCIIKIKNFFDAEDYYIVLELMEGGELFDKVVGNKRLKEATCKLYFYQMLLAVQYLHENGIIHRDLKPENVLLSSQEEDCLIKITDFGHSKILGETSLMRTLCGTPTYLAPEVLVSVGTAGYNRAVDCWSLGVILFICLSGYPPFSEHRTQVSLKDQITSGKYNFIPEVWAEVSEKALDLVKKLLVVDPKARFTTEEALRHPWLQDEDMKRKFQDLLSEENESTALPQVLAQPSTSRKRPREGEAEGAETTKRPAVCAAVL
Tyrosine-protein kinase BTK (Homo sapiens), sequence (Q06187 whole entry): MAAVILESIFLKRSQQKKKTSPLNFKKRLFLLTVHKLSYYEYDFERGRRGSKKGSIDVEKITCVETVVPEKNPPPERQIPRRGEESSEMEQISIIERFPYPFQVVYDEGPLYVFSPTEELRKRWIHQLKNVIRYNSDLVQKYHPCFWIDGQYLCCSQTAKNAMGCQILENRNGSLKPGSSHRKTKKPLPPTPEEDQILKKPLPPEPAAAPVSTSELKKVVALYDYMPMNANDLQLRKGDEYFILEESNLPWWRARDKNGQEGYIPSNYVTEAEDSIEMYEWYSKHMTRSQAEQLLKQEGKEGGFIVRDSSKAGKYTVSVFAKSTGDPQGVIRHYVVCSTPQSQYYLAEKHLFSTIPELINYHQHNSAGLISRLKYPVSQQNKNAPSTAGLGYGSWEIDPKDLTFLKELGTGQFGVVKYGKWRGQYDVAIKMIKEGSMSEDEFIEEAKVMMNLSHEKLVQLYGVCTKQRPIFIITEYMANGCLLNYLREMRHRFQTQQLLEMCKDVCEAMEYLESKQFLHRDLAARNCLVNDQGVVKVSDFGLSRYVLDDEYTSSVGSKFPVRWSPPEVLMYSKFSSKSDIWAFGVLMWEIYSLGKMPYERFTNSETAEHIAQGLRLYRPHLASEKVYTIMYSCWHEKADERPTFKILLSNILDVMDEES
RAF proto-oncogene serine/threonine-protein kinase (Homo sapiens), sequence (P04049 whole entry): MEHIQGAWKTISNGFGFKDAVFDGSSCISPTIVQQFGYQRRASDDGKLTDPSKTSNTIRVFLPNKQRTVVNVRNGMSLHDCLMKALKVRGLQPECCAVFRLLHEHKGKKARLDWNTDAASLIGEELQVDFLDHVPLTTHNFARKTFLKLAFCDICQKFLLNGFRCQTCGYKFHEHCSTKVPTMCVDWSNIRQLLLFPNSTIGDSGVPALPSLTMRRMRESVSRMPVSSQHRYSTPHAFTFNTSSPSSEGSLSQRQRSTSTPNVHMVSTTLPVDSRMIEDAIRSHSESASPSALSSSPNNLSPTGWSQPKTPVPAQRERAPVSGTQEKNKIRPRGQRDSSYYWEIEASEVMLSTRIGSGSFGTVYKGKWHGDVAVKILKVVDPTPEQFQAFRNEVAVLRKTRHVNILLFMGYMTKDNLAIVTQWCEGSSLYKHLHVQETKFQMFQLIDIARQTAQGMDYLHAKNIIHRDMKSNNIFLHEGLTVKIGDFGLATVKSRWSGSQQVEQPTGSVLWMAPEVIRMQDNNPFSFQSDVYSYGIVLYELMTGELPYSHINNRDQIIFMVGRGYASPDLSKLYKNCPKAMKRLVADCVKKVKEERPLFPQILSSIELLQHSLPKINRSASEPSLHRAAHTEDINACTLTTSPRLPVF

As to `COc1cc(OC)c(/C=C2/C(=O)Nc3ccc(Cl)cc32)c(OC)c1`, the inhibition in data set [1] (concentration not given here), in [2] (concentration not given here), in [3] (concentration not given here), in data set [4] (concentration not given here), in data set [5] (concentration not given here) and in data set [6] (concentration not given here) was less than 20% in each case. Moreover, the inhibition in data set [7] (concentration not given here), in [8] (concentration not given here), in data set [9] (concentration not given here), in [10] (concentration not given here), in data set [12] (concentration not given here) and in data set [13] (concentration not given here) was less than 20% in each case. In addition, in [11], the Activity was determined as 20 µM. Further, the residual activity in data set [14] was 87%.
Regarding `COc1ccc(/C=C2/C(=O)Nc3ccc(Cl)cc32)c(OC)c1OC`, the inhibition result in data set [1], in [2], in [3], in data set [4], in data set [5] and in [6] was “inactive” in each case. The inhibition entry in data set [7], in data set [8], in [9], in data set [10], in data set [12] and in [13] was “inactive” throughout. For the same compound, in data set [11], the Activity turned out to be 20 µM. Further, in data set [14], the residual activity stood at 99%.
Turning to `O=C1Nc2ccc(Cl)cc2/C1=C\c1cc(F)cc(F)c1`, the residual activity stood at 81% in data set [15], 106% in [16] and 112% in data set [17].
For the compound `COc1cc(OC)c(C=C2C(=O)Nc3ccccc32)c(OC)c1`, the inhibition result in data set [18], in [1], in [2], in data set [3], in [4] and in data set [5] was “inactive” each time. Besides, the inhibition result in data set [7], in data set [8], in [9], in [21], in data set [22] and in data set [10] was “inactive” each time. The inhibition result in data set [24], in data set [12] and in data set [13] was “inactive” each time. In data set [19], the inhibition result was “Active”. Besides, the inhibition in [20] turned out to be 68%; in [23], 61%. In addition, the residual activity in [14] came to 19%.
For the compound `CCN(CC)CCNC(=O)c1c(C)[nH]c(/C=C2\C(=O)Nc3ccc(F)cc32)c1C` [SUNITINIB], in [25], the result was inactive. Also, in [11], the Activity is 40 µM.
Turning to `COc1cc(/C=C2/C(=O)Nc3ccc(Cl)cc32)cc(OC)c1OC`, the Activity in [11] stood at 80 µM.
